The record followed here is patent US12054486B2, “Pyridine derivatives and their use as sodium channel activators” (Xenon Pharmaceuticals Inc., priority 2021, dated 2024).

The structures appear in SMILES notation.

The assay concerns the target sodium channel isoforms of interest stably expressed in Human Embryonic Kidney Cells (voltage-gated sodium channel, particularly NaV1.1) (Homo sapiens, UniProt P35498). In words: automated planar patch clamp assay of sodium channel gating (area under the sodium current trace). The following applies: HEK cells, voltage step from −120 mV to 0 mV, increasing concentrations. It counts as cell-based. An excerpt:
A typical assay described in Crestey, F. et al., ACS Chem Neurosci (2015), Vol. 6, pp. 1302-1308, AA43279 (Frederiksen, K. et al., Eur J Neurosci (2017), Vol. 46, pp. 1887-1896) and Lu AE98134 (von Schoubyea, N. L. et al., Neurosci Lett (2018), Vol. 662, pp. 29-35) employs the use of automated planar patch clamp techniques to study the effects of the chemical agent on the gating of sodium channels. The sodium channel isoforms of interest are stably expressed in Human Embryonic Kidney Cells and the currents that flow through those channels in response to a depolarizing voltage clamp step from −120 mV to 0 mV are measured in the presence of increasing concentrations of the chemical agents. The area under the sodium current trace which correlates to the magnitude of sodium flux through the cell membrane is used to quantify the effects on gating of the channels. Other parameters that are measured in the assay include the peak current, time constant of open state inactivation and the voltage dependence of steady state inactivation properties. The concentration responses are used to determine potency of each chemical agents effects on modulating the sodium channel isoform gating. Such techniques are known to those skilled in the art, and may be developed, using current technologies, into low or medium throughput assays for evaluating compounds for their ability to modulate sodium channel behaviour.
As disclosed above, typical assays for testing compounds of the disclosure are known, for example as disclosed in Crestey, F. et al., ACS Chem Neurosci (2015), Vol. 6, pp. 1302-1308, AA43279 (Frederiksen, K. et al., Eur J Neurosci (2017), Vol. 46, pp. 1887-1896) and Lu AE98134 (von Schoubyea, N. L. et al., Neurosci Lett (2018), Vol. 662, pp. 29-35) which employs the use of automated planar patch clamp techniques to study the effects of the chemical agent on the gating of sodium channels. The sodium channel isoforms of interest are stably expressed in Human Embryonic Kidney Cells and the currents that flow through those channels in response to a depolarizing voltage clamp step from −120 mV to 0 mV are measured in the presence of increasing concentrations of the chemical agents. The area under the sodium current trace which correlates to the magnitude of sodium flux through the cell membrane is used to quantify the effects on gating of the channels. Other parameters that are measured in the assay include the peak current, time constant of open state inactivation and the voltage dependence of steady state inactivation properties. The concentration responses are used to determine potency of each chemical agents effects on modulating the sodium channel isoform gating.
(The patch-clamp technique gives a direct electrical read-out from membranes.)
Usually EC50 stands for the concentration needed to bring the measured effect to its halfway point. A low value points to a more potent agent. Turning to `CC1(C)Cc2nc(-c3c(-c4cc(F)ccc4F)ccnc3N3CCC(F)(F)C3)[nH]c2CO1` [Example 57, 2-(4-(2,5-difluorophenyl)-2-(3,3-difluoropyrrolidin-1-yl)pyridin-3-yl)-6,6-dimethyl-3,4,6,7-tetrahydropyrano[3,4-d]imidazole], the EC50 is under 1000 nM and the “Empirical Emax” value is listed as “++++ (++++ indicates a value greater than 7.5)”.
`Fc1ccccc1-c1ccnc(N2CC[C@H](F)C2)c1-c1nnco1` [Example 9, (S)-2-(4-(2-fluorophenyl)-2-(3-fluoropyrrolidin-1-yl)pyridin-3-yl)-1,3,4-oxadiazole]: the EC50 is at least 50000 nM and the “Empirical Emax” value is “++ (++ indicates a value from 2.0 up to 5.0 μM)”.
For `CN1CCc2nc(-c3c(-c4ccccc4)ccnc3N3CC[C@H](F)C3)[nH]c2C1` [Example 36, (S)-2-(2-(3-fluoropyrrolidin-1-yl)-4-phenylpyridin-3-yl)-5-methyl-4,5,6,7-tetrahydro-3H-imidazo[4,5-c]pyridine] the same measures were 10000 to 50000 nM and “+ (+ indicates a value less than 2.0 μM)”.
For `F[C@H]1CCN(c2nccc(-c3ccccc3)c2-c2nc3ccccc3[nH]2)C1` [Example 17, (S)-2-(2-(3-fluoropyrrolidin-1-yl)-4-phenylpyridin-3-yl)-1H-benzo[d]imidazole] the same measures were 1000 to 10000 nM and “++++ (++++ indicates a value greater than 7.5)”.
For `Fc1ccc(F)c(-c2ccnc(N3CCC(F)(F)C3)c2-c2nc3c([nH]2)CCOC3)c1` [Example 73, 2-[4-(2,5-difluorophenyl)-2-(3,3-difluoropyrrolidin-1-yl)-3-pyridyl]-1,4,6,7-tetrahydropyrano[3,4-d]imidazole] the same measures were under 1000 nM and “+++ (+++ indicates a value from 5.0 up to 7.5 μM)”.
As for `FC1(F)CCN(c2nccc(-c3ccccc3)c2-c2nc3c([nH]2)COC2(CCC2)C3)C1` [Example 53, 2′-(2-(3,3-difluoropyrrolidin-1-yl)-4-phenylpyridin-3-yl)-4′,7′-dihydro-3′H-spiro[cyclobutane-1,6′-pyrano[3,4-d]imidazole]], the EC50 was in the range of 1000 to 10000 nM and the “Empirical Emax” value was “++ (++ indicates a value from 2.0 up to 5.0 μM)”.
As for `Cc1cc2nc(-c3c(-c4ccccc4F)ccnc3N3CCC(F)(F)C3)[nH]c2cn1` [Example 79, 2-[2-(3,3-difluoropyrrolidin-1-yl)-4-(2-fluorophenyl)-3-pyridyl]-6-methyl-3H-imidazo[4,5-c]pyridine], the EC50 was under 1000 nM and the “Empirical Emax” value was “++++ (++++ indicates a value greater than 7.5)”.
In the case of `c1ccc(-c2ccnc(N3CC4(COC4)C3)c2-c2nc3c([nH]2)COCC3)cc1` [Example 66, 2-(4-phenyl-2-(2-oxa-6-azaspiro[3.3]heptan-6-yl)pyridin-3-yl)-3,4,6,7-tetrahydropyrano[3,4-d]imidazole], the EC50 was in the range of 1000 to 10000 nM and the “Empirical Emax” value is “+++ (+++ indicates a value from 5.0 up to 7.5 μM)”.
In the case of `Fc1ccccc1-c1ccnc(N2CCC(F)(F)C2)c1-c1nc2c([nH]1)COCC2` [Example 72, 2-[2-(3,3-difluoropyrrolidin-1-yl)-4-(2-fluorophenyl)-3-pyridyl]-1,4,6,7-tetrahydropyrano[3,4-d]imidazole], the EC50 was under 1000 nM and the “Empirical Emax” value is listed as “++++ (++++ indicates a value greater than 7.5)”.
Take `Fc1ccc(F)c(-c2ccnc(N3CC[C@H](F)C3)c2-c2nc3cnc(Cl)cc3[nH]2)c1` [Example 1, (S)-6-chloro-2-(4-(2,5-difluorophenyl)-2-(3-fluoropyrrolidin-1-yl)pyridin-3-yl)-1H-imidazo[4,5-c]pyridine]: the EC50 is under 1000 nM and the “Empirical Emax” value was “++++ (++++ indicates a value greater than 7.5)”.
Regarding `FC1(F)CN(c2nccc(-c3ccccc3)c2-c2nc3c([nH]2)COCC3)C1` [Example 65, 2-(2-(3,3-difluoroazetidin-1-yl)-4-phenylpyridin-3-yl)-3,4,6,7-tetrahydropyrano[3,4-d]imidazole], the EC50 was at least 50000 nM and the “Empirical Emax” value is “++ (++ indicates a value from 2.0 up to 5.0 μM)”.
